Patent US20110257108A1, “SYNTHESIS AND ACTIVITY OF LACTOSE ESTERS” (Utah State University, priority 2010, published 2011)

Tests used:
[1] = Method: Aliquots, 600 μL, of each filtered sample were dried by a Savant SpeedVac system. The dry sugar in each tube was re-suspended in 600 μL de-ionized water. […] The amount of sugar in each sample was determined by comparing peak areas to the lactose-in-water control.
[2] = system: Enterococcus faecalis (ATCC 700802); assay: Microbial growth inhibition (microtiter OD 600 nm, 48 hours); assay type: cell-based; conditions: gram positive, FIG. 7
Method: (§1) Referring now to FIG. 7 and Table 4, the microbial inhibitory characteristics of LML synthesized and purified as described above, were investigated against Enterococcus faecalis (ATCC 700802), Listeria monocytogenes, Staphyloccus suis, Escherichia coli H7P:0157H7 (ATCC 35150), Salmonella typhimurium (ATCC 700720) and Klebsiella pneumoniae (ATCC 700721). Cultures were grown in appropriate microbial media with antibiotics and diluted to 10^5 colony forming units (CFU) per mL. Cultures (0.5 mL or 10^2.5 CFU total) were added to microtiter wells and an initial optical density (OD) at 600 nm was recorded. For treatments, LML in concentrations ranging from 0.001 to 0.1% was added to individual microtiter wells and the OD was again measured after 48 hours. Controls were treated similarly, but without the addition of LML. Percent growth inhibition was determined by comparing the OD reading for the controls and treatments.

[3] = system: Escherichia coli H7P:0157H7 (ATCC 35150); assay: as above; assay type: cell-based; conditions: gram negative; LML 0.001 to 0.1%; FIG. 7
Method: as §1

[4] = system: Klebsiella pneumoniae (ATCC 700721); assay: as above; assay type: cell-based; conditions: gram negative; LML 0.001 to 0.1%; FIG. 7
Method: as §1

Listeria monocytogenes = assay: as above; assay type: cell-based; conditions: gram positive, FIG. 7
Method: as §1

[5] = system: Salmonella typhimurium (ATCC 700720); assay: as above; assay type: cell-based; conditions: gram negative; LML 0.001 to 0.1%; FIG. 7
Method: as §1

Staphyloccus suis = assay: as above; assay type: cell-based; conditions: gram positive, FIG. 7
Method: as §1

[6] = system: clinical isolates of Listeria monocytogenes; assay: Microbial inhibitory studies with clinical isolates (microtitre well plate method, plate counts); assay type: cell-based
Excerpt: Referring now to FIGS. 8 through 12, in light of the microbial inhibitory effect shown with Listeria monocytogenese, we obtained clinical isolates of Listeria monocytogenes from the International Life Science Institute Database, Cornell University and tested LM at the same concentrations as listed above with the clinical isolate. Inhibitory effects against clinical isolates of Listeria monocytogenese are shown in FIGS. 8, 9, 10, 11 and 12 (inhibition shown is percent growth inhibition). The clinical isolates are described in Table 5.
Still referring to FIGS. 8 through 12, microbial inhibitory studies were carried out in microtitre well plate method. Cultures were grown in appropriate microbial media with antibiotics and diluted to 10^5 colony forming units (CFU) per mL. Cultures (0.5 mL or 10^2.5 CFU total) were added to microtiter wells and an initial optical density (OD) at 600 nm was recorded. The studies were conducted by adding different concentrations of LML as described above with appropriate controls (media only, media plus cells, media plus cells and 0.1% Polysorbate 80, same amount of ethanol as in the vol of LML plus 0.1% polysorbate 80 with cells). Plate counts of all controls and treatments were done. For each strain and treatment, the experiments were done 6 times and replicated at least once. Data shown has a coefficient of variation of less than 10%. […]

| solubility in 2M2B [1] | solubility in the other solvents [1] | Compound | growth inhibition ([2]; LML 0.005% and less) | growth inhibition ([2]; LML 0.1% (1 mg/mL)) | susceptibility to inhibition [3] | susceptibility to inhibition [4] | growth inhibition (Listeria monocytogenes; LML 0.005% and less) | growth inhibition (Listeria monocytogenes; LML 0.1% (1 mg/mL)) | susceptibility to inhibition [5] | growth inhibition (Staphyloccus suis; LML 0.005% and less) | growth inhibition (Staphyloccus suis; LML 0.1% (1 mg/mL)) | percent growth inhibition ([6]; LML 1.0 mg/mL, each strain (J1-177, C1-056, N3-013, R2-499, N1-227), with 0.1% Polysorbate 80, versus control with ethanol and tween) | type of inhibition (plate counts) ([6]; plate counts of treatments compared to the controls) |
| --- | --- | --- | --- | --- | --- | --- | --- | --- | --- | --- | --- | --- | --- |
| 700-800 micromol/L solvent | 50-200 micromol/L solvent | OC[C@H]1O[C@@](CO)(O[C@H]2O[C@H](CO)[C@@H](O)[C@H](O)[C@H]2O)[C@@H](O)[C@@H]1O [sucrose] |  |  |  |  |  |  |  |  |  |  |  |
|  |  | lactose monolaurate [LML] | limited inhibition | inhibited | minimal susceptibility | minimal susceptibility | limited inhibition | inhibited | minimal susceptibility | limited inhibition | inhibited | 70-90% | bacterial static |
